According to patent US20260364214A1, “MULTIVALENT FIBROBLAST ACTIVATION PROTEIN LIGANDS FOR TARGETED DELIVERY APPLICATIONS” (Philochem AG, priority 2022, published 2026):

Key:
[1] = Tolerability (body weight change) of 177Lu conjugates; format: in vivo, mouse (athymic Balb/c AnNRj-Foxn1); conditions: single administration, 250 nmol/kg, 250 MBq/kg
Procedure: (§1) The anti-cancer efficacy of ^177Lu-ESV6, ^177Lu-Bi-ESV6 and ^177Lu-Tri-ESV6 was assessed in athymic Balb/c AnNRj-Foxn1 mice bearing SK-RC-52.hFAP tumor in the right flank. ^177Lu-ESV6, ^177Lu-Bi-ESV6 or ^177Lu-Tri-ESV6 were intravenously administered at a dose of 250 nmol/kg, 250 MBq/kg (single administration on day 9 after tumor implantation). Therapy experiments started when the average volume of established tumors had reached 100-150 mm^3. Body weight of the animals and tumor volume were daily measured and recorded. Tumor dimensions were measured with an electronic caliper and tumor volume was calculated with the formula (long side, mm)×(short side, mm)×(short side, mm)×0.5. Animals were euthanized when one or more termination criterium indicated by the experimental license was reached. Prism 7 software (GraphPad Software) was used for data analysis.

SK-RC-52.hFAP tumors [2] = assay: Therapeutic efficacy in SK-RC-52.hFAP tumor bearing mice; format: in vivo, mouse (athymic Balb/c AnNRj-Foxn1); conditions: single administration, 250 nmol/kg, 250 MBq/kg
Procedure: SK-RC-52.hFAP were grown to 80% confluence in RPMI-1640 with 10% fetal bovine serum (FBS) and 1% antibiotic-antimycotic and detached with Trypsin-EDTA (ethylenediaminetetraacetic acid) 0.05%. Tumor cells were resuspended in Hanks' Balanced Salt Solution medium. Aliquots of 5 million cells (100 μL of suspension) were injected subcutaneously in the right flank of female athymic Balb/c AnNRj-Foxn1 mice (6 to 8 wk of age).
Prior to the therapy studies, precursors (25 nmol) were dissolved in 25 μL of milliQ water, then sodium acetate buffer (75 μL, 1 M in water) and 25, 75 or 150 MBq of ^177Lu solution were added. The mixture was heated at 90 °C for 1 minutes followed by dilution with 400 μL of PBS to afford a final volume of 500 μL (5 doses of 100 μL each). […]
as §1, with “Therapy experiments started when the average volume of established tumors had reached 100-150 mm^3.” left out, “Animals were euthanized when one or more termination criterium indicated by the experimental license was reached. Prism 7 software (GraphPad Software) was used for data analysis.” left out

SK-RC-52.hFAP tumors [3] = assay: 177Lu biodistribution at different radioisotope molar activities; format: in vivo, mouse; conditions: 0.2 vs 4.8 MBq/nmol; 24 h post injection
Procedure: Prior to the biodistribution study at different specific activities (FIG. 19), precursors (20 nmol) were dissolved in milliQ water and diluted with sodium acetate (1 M in water, pH=4.5). ^177Lu solution (4 or 96 MBq) were added and the mixture was heated at 90 °C for 10 minutes, followed by dilution with PBS to achieve final volume of 400 μL (4 doses of 100 μL each, corresponding to 0.2 MBq/nmol and 4.8MBq/nmol, respectively).
Results of the ^177Lu biodistribution study at different specific activities: low (0.2 MBq/nmol) and high (4.8 MBq/nmol) with ^177Lu Tri-ESV6-DOTAGA are shown in FIG. 19.

SK-RC-52.hFAP cells = assay: Cell efflux assay with 177Lu-labeled ligands; format: cell-based
Procedure: SK-RC-52.hFAP cells, were cultured using RPMI medium supplemented with 10% Fetal Bovine Serum (FBS) and 1% Antibiotic-Antimytotic. Cells were seeded in 24-well plates (200'000 cells/well, 0.5 mL/well) and incubated overnight at 37 °C, 5% CO2. Then, media was removed, cells were washed with PBS (2×0.5 mL) and incubated with a solution of ^177Lu-ESV6, ^177Lu-Bi-ESV6, ^177Lu-Tri-ESV6 or ^177Lu-FAP-2286 (10 KBq, […], 0.5 mL). After 1 h, media was removed, and cells were washed with PBS (2×0.5 mL) and incubated with fresh RPMI medium without supplements. Fractions of the culture media were measured with a gamma counter (Packard Cobra) at different time-points. Percentage of compound bound was calculated as fraction of the total activity and corrected for the ^177Lu decay, as shown in FIG. 3.

SMILES	tolerability (body weight change), in words [1]	therapeutic activity (tumor volume), in words (SK-RC-52.hFAP tumors [2])	effect of molar activity on biodistribution, in words (SK-RC-52.hFAP tumors [3])	residence time / efflux, in words (SK-RC-52.hFAP cells)
N#CC1CC(F)(F)CN1C(=O)CNC(=O)c1ccnc2c(NC(=O)CCC(=O)NCCCCC(NC(=O)CCC(=O)Nc3cccc4c(C(=O)NCC(=O)N5CC(F)(F)CC5C#N)ccnc34)C(=O)NCCNC(=O)CCC(C(=O)O)N3CCN(CC(=O)[O-])CCN(CC(=O)[O-])CCN(CC(=O)[O-])CC3)cccc12.[177Lu+3] (stereo not drawn) [^177Lu-Bi-ESV6-DOTAGA, reference compound]	very well tolerated	–	–	–
N#C[C@@H]1CC(F)(F)CN1C(=O)CNC(=O)c1ccnc2c(NC(=O)CCC(=O)NCCNC(=O)CCOCC(COCCC(=O)NCCNC(=O)CCC(=O)Nc3cccc4c(C(=O)NCC(=O)N5CC(F)(F)C[C@H]5C#N)ccnc34)(COCCC(=O)NCCNC(=O)CCC(=O)Nc3cccc4c(C(=O)NCC(=O)N5CC(F)(F)C[C@H]5C#N)ccnc34)NC(=O)CCC(C(=O)O)N3CCN(CC(=O)O)CCN(CC(=O)O)CCN(CC(=O)O)CC3)cccc12 (stereo partly drawn) [Tri-ESV6-DOTAGA, 2,2′,2″-(10-(19-carboxy-1-((4-((2-((S)-2-cyano-4,4-difluoropyrrolidin-1-yl)-2-oxoethyl)carbamoyl)quinolin-8-yl)amino)-14,14-bis((3-((2-(4-((4-((2-((S)-2-cyano-4,4-difluoropyrrolidin-1-yl)-2-oxoethyl)carbamoyl)quinolin-8-yl)amino)-4-oxobutanamido)ethyl)amino)-3-oxopropoxy)methyl)-1,4,9,16-tetraoxo-12-oxa-5,8,15-triazanonadecan-19-yl)-1,4,7,10-tetraazacyclododecane-1,4,7-triyl)triacetic acid]	–	remarkable therapeutic activity	–	–
N#C[C@@H]1CC(F)(F)CN1C(=O)CNC(=O)c1ccnc2c(NC(=O)CCC(=O)NCCNC(=O)CCC(C(=O)O)N3CCN(CC(=O)[O-])CCN(CC(=O)[O-])CCN(CC(=O)[O-])CC3)cccc12.[177Lu+3] (stereo partly drawn) [^177Lu-ESV6-DOTAGA, reference compound]	very well tolerated	–	–	–
N#CC1CC(F)(F)CN1C(=O)CNC(=O)c1ccnc2c(NC(=O)CCC(=O)NCCNC(=O)CCOCC(COCCC(=O)NCCNC(=O)CCC(=O)Nc3cccc4c(C(=O)NCC(=O)N5CC(F)(F)CC5C#N)ccnc34)(COCCC(=O)NCCNC(=O)CCC(=O)Nc3cccc4c(C(=O)NCC(=O)N5CC(F)(F)CC5C#N)ccnc34)NC(=O)CCC(C(=O)O)N3CCN(CC(=O)[O-])CCN(CC(=O)[O-])CCN(CC(=O)[O-])CC3)cccc12.[177Lu+3] (stereo not drawn) [^177Lu-Tri-ESV6-DOTAGA]	very well tolerated	–	does not significantly interfere with the advantageous biodistribution	longer residence time in FAP-positive tumor cells, followed by ^177Lu-Bi-ESV6, ^177Lu-ESV6 and ^177Lu-FAP2286
